Measurements taken from US20230052298A1, “LACTIC ACID BACTERIUM FERMENTATION PROMOTER” (MEIJI CO., LTD., priority 2019, published 2023).

Key:
[1] = test system: L. delbrueckii subsp. bulgaricus 2038; experiment: Test Example 2-1: fermentation time versus concentration of malic acid or fumaric acid; assay type: cell-based, Lactobacillus delbrueckii subsp. bulgaricus; settings: L. bulgaricus 2038; from Tables 3 and 4
Method: The fermentation was carried out using a fermentation medium (raw material milk). The fermentation medium was prepared by adding formic acid to the 10% reduced skim milk medium so as to give a final concentration of 1 mM, and then sterilizing the mixture at 95° C., and was used. […] In the above fermentation medium, a lactic acid bacterial starter of […] was inoculated at 0.5% (with respect to the amount of fermentation medium), statically cultured at 40° C., and fermented. The fermentation time was the time required for the medium to reach pH 4.6.

[2] = test system: Lactobacillus delbrueckii subsp. bulgaricus; experiment: Test Example 2-2: organic acid concentration in fermentate at completion of fermentation, formic acid medium; assay type: cell-based; settings: 1 mM additive, 1 mM formic acid medium
Method: (§1) The strains shown in Tables 6 and 7 were precultured in the preculture medium and then used. The activation medium used was a 10 mass % reduced skim milk medium containing 0.1 mass % yeast extract, sterilized at 121° C. for 7 minutes. Here, the 10 mass % reduced skim milk medium is a 10 mass % aqueous solution of skim milk powder (fat 1 mass %, protein 34 mass %, lactose 54 mass %, ash 8 mass %, non-fat milk solid 96 mass %) (manufactured by Meiji Co., Ltd.) (in the above medium, lactose 5.4 mass %, non-fat milk solid 9.6 mass %). Frozen bacteria were added to the above-mentioned activation medium in an amount of 0.1 mass % (with respect to the amount of the activation medium) and statically cultured at 37° C. for 16 hours to obtain an activation solution. An aliquot of 0.1 mass % of the activation solution obtained (with respect to the amount of activation medium) was added to another activation medium, and the mixture was allowed to stand at 37° C. for 16 hours to obtain a lactic acid bacterial starter. Then, fermentation was carried out using a fermentation medium as raw material milk. The fermentation medium was prepared by adding formic acid to the 10 mass % reduced skim milk medium so as to give a final concentration of 1 mM, and then sterilizing the mixture at 95° C., and was used. […] The pH of the fermentation medium was about 6.4. The lactic acid bacterial starter of each strain obtained above was inoculated into the fermentation medium in an amount of 2.5 mass % (with respect to the amount of the fermentation medium), statically cultured at 40° C., and fermented. The fermentation time was the time required for the medium to reach pH 4.6. The pH value was measured using a commercially available pH meter.

[3] = test system: Lactobacillus delbrueckii subsp. bulgaricus; experiment: Test Example 8: organic acid concentration in fermentate at completion of fermentation, inosinic acid medium; assay type: cell-based; settings: 1 mM additive, 1 mM inosinic acid medium
Method: as §1, with “Tables 13” for “Tables 6”, “and 14” for “and 7”, “adding inosinic” for “adding formic”

[4] = test system: Lactobacillus delbrueckii subsp. bulgaricus OLL1073R-1; experiment: Test Example 9: EPS production during culture; assay type: cell-based; settings: 4 mM added; strain OLL1073R-1; 37° C.; compared with the control
Method: Frozen bacteria of Lactobacillus delbrueckii subsp. bulgaricus OLL1073R-1 were prepared.
Raw material components other than anhydrous crystalline glucose were dissolved in Elix water, the mixture was adjusted to pH 6.65 using sodium hydroxide, and then diluted in measuring flask to 70 wt % of the charge amount of the medium. Anhydrous crystalline glucose was dissolved in Elix water, and diluted in measuring flask to 30 wt % of the charge amount of the medium.
In addition, the raw material components other than sugar solution and sugar were sterilized separately by heating at 110° C. for 1 minute in an autoclave and then aseptically mixed and used.
An aliquot of 1.5 kg of the above medium was adjusted to pH 5.4 using 6 N potassium carbonate, to the medium, 0.30 mass % of frozen bacteria (with respect to the amount of medium) was inoculated, and the bacteria were cultured at 37° C. while top ventilating with nitrogen at a flow rate of 0.5 L/min and stirring under the condition of 150 rpm.
The EPS concentration was measured under the following conditions. […]
The supernatant was removed by centrifuging (4° C., 13400 g, 20 min), and 20 ml of cooled 66% ethanol was added thereto to suspend the precipitate. […] The EPS concentration of the analysis sample was measured by the phenol-sulfuric acid method.

[5] = No addition of L. delbrueckii subsp. bulgaricus

SMILES | Concentrations at which a fermentation promoting effect was confirmed [1] [mM] | Concentration of malic acid [2, 5] [mM] | Concentration of succinic acid [2, 5] [mM] | Concentration of succinic acid in fermentate at completion of fermentation (pH 4.6) ([2]; strain 2038) [mM] | Concentration of succinic acid in fermentate at completion of fermentation (pH 4.6) ([2]; strain OLL1073R-1) [mM] | Concentration of succinic acid in fermentate at completion of fermentation (pH 4.6) ([2]; strain OLL1171) [mM] | Concentration of succinic acid in fermentate at completion of fermentation (pH 4.6) ([2]; strain OLL1247) [mM] | Concentration of succinic acid in fermentate at completion of fermentation (pH 4.6) ([2]; strain OLL1255) [mM] | Concentration of succinic acid in fermentate at completion of fermentation (pH 4.6) ([2]; strain OLL205013) [mM] | Concentration of succinic acid in fermentate at completion of fermentation (pH 4.6) ([2]; strain P1902901) [mM] | Concentration of malic acid [3, 5] [mM] | Concentration of succinic acid [3, 5] [mM] | Concentration of succinic acid in fermentate at completion of fermentation (pH 4.6) ([3]; strain 0LL1171) [mM] | Concentration of succinic acid in fermentate at completion of fermentation (pH 4.6) ([3]; strain 2038) [mM] | Concentration of succinic acid in fermentate at completion of fermentation (pH 4.6) ([3]; strain OLL1073R-1) [mM] | Concentration of succinic acid in fermentate at completion of fermentation (pH 4.6) ([3]; strain OLL1247) [mM] | Concentration of succinic acid in fermentate at completion of fermentation (pH 4.6) ([3]; strain OLL1255) [mM] | Concentration of succinic acid in fermentate at completion of fermentation (pH 4.6) ([3]; strain OLL205013) [mM] | Concentration of succinic acid in fermentate at completion of fermentation (pH 4.6) ([3]; strain P1902901) [mM] | EPS concentration with the culturing time (FIG. 1) [4] | further results
O=C(O)/C=C/C(=O)O [Fumaric acid, fumaric acid] | 0.01 to 2.5 | 0.11 | 0.07 | 1.67 | 1.73 | 1.58 | 1.72 | 1.49 | 1.54 | 1.59 | 0.13 | 0.06 | 1.43 | 1.43 | 1.52 | 1.57 | 1.49 | 1.60 | 1.40 | higher concentration compared with the control | Concentration of fumaric acid [2, 5]: 1.11 mM; Concentration of fumaric acid in fermentate at completion of fermentation (pH 4.6) ([2]; strain OLL1255): 0.15 mM; Concentration of fumaric acid [3, 5]: 1.12 mM
O=C(O)CC(O)C(=O)O (centres unmarked) [Malic acid, malic acid] | 0.01 to 50 | 0.99 | 0.08 | 1.71 | 1.67 | 1.57 | 1.67 | 1.03 | 1.55 | 1.59 | 1.06 | 0.06 | 1.40 | 1.40 | 1.50 | 1.53 | 1.46 | 1.53 | 1.38 | higher concentration compared with the control | Concentration of malic acid in fermentate at completion of fermentation (pH 4.6) ([2]; strain OLL1255): 0.35 mM
